Molecular target: T1, GPR40 (Homo sapiens, UniProt O14842)
T1 construct: expressed in transfected cells
Test: Cell-Based Aequorin Assay (agonistic activity)
Conditions: 1 μM test compound; percentage of the activity of the reference agonist at its EC100 concentration
Description: <In Vitro Assay 1> Cell-Based Aequorin Assay
Recombinant cells grown 18 h prior to the test in media without antibiotics were detached by gentle flushing with PBS-EDTA (5 mM EDTA), recovered by centrifugation and resuspended in “assay buffer” (DMEM/HAM's F12 with HEPES+0.1% BSA fatty-acid free). Cells were incubated at room temperature for at least 4 h with Coelenterazine (Molecular Probes). Dose response curves with the reference compounds were performed before testing the compounds.
For agonistic activity testing, 50 μL of cell suspension was injected on 96-well plates with plated 50 μL of test compounds or reference agonist. The resulting emission of light was recorded using the Hamamatsu Functional Drug Screening System 6000 (FDSS 6000).
To standardize the emission of recorded light (determination of the “100% signal”) across plates and across different experiments, some of the wells contained the reference agonist at its EC100 obtained during the test validation. Agonistic activities of test compounds were expressed as a percentage of the activity of the reference agonist at its EC100 concentration.

T1 sequence (O14842 whole entry): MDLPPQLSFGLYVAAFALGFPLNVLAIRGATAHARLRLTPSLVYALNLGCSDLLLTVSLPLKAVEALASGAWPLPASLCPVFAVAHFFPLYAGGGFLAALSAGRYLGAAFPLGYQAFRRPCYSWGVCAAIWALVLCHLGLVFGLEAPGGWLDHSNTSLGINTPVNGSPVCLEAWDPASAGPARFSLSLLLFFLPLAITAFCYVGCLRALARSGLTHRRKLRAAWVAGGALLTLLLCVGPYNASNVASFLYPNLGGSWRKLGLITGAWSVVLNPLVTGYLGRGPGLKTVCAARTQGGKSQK

SMILES	Agonistic activity (%, 1 μM)
Cc1cc(OCCCS(C)(=O)=O)cc(C)c1-c1cccc(COc2ccc3c(c2)OC[C@H]3CC(=O)O)c1 [Comparative Example 1, reference compound]	+++ (+++: over 70)
CC#C[C@@H](CC(=O)O)c1ccc(O[C@@H]2CCc3c(-c4ccc(OC5CCS(=O)(=O)CC5)nc4)ccc(F)c32)cc1 [Example 1, (S)-3-(4-(((R)-4-(6-((1,1-Dioxidotetrahydro-2H-thiopyran-4-yl)oxy)pyridin-3-VI)-7-fluoro-2,3-dihydro-1H-inden-1-yl)oxy)phenyl)hex-4-ynoic acid]	+ (+: under 40)
CC#C[C@@H](CC(=O)O)c1ccc(O[C@@H]2CCc3c(-c4ccc(OCCN5CCS(=O)(=O)CC5)nc4)ccc(F)c32)cc1 [Example 3, (S)-3-(4-(((R)-4-(6-(2-(1,1-Dioxidothiomorpholino)ethoxy)pyridin-3-yl)-7-fluoro-2,3-dihydro-1H-inden-1-yl)oxy)phenyl)hex-4-ynoic acid]	+ (+: under 40)
CC#C[C@@H](CC(=O)O)c1ccc(O[C@@H]2CCc3c(-c4ccc(O[C@@H]5CCOC5)nc4)ccc(F)c32)cc1 [Example 5, (S)-3-(4-(((R)-7-Fluoro-4-(6-(((R)-tetrahydrofuran-3-yl)oxy)pyridin-3-yl)-2,3-dihydro-1H-inden-1-yl)oxy)phenyl)hex-4-ynoic acid]	+++ (+++: over 70)
CC#C[C@@H](CC(=O)O)c1ccc(O[C@@H]2CCc3c(-c4ccc(OC5CCOCC5)nc4)ccc(F)c32)cc1 [Example 6, (S)-3-(4-(((R)-7-Fluoro-4-(6-((tetrahydro-2H-pyran-4-yl)oxy)pyridin-3-yl)-2,3-dihydro-1H-inden-1-yl)oxy)phenyl)hex-4-ynoic acid]	+++ (+++: over 70)
CC#C[C@@H](CC(=O)O)c1ccc(O[C@@H]2CCc3c(-c4ccc(O[C@H]5CCOC5)nc4)ccc(F)c32)cc1 [Example 7, (S)-3-(4-(((R)-7-Fluoro-4-(6-(((S)-tetrahydrofuran-3-yl)oxy)pyridin-3-yl)-2,3-dihydro-1H-inden-1-yl)oxy)phenyl)hex-4-ynoic acid]	+++ (+++: over 70)
CC#C[C@@H](CC(=O)O)c1ccc(O[C@@H]2CCc3c(-c4cnc(O[C@@H]5CCOC5)cc4C)ccc(F)c32)cc1 [Example 8, (S)-3-(4-(((R)-7-Fluoro-4-(4-methyl-6-(((R)-tetrahydrofuran-3-yl)oxy)pyridin-3-yl)-2,3-dihydro-1H-inden-1-yl)oxy)phenyl)hex-4-ynoic acid]	++ (++: 40-70)
CC#C[C@@H](CC(=O)O)c1ccc(O[C@@H]2CCc3c(-c4cncc(O[C@@H]5CCOC5)c4)ccc(F)c32)cc1 [Example 15, (S)-3-(4-(((R)-7-Fluoro-4-(5-(((R)-tetrahydrofuran-3-yl)oxy)pyridin-3-yl)-2,3-dihydro-1H-inden-1-yl)oxy)phenyl)hex-4-ynoic acid]	++ (++: 40-70)
CC#C[C@@H](CC(=O)O)c1ccc(O[C@@H]2CCc3c(-c4cncc(OC5CCOCC5)c4)ccc(F)c32)cc1 [Example 16, (S)-3-(4-(((R)-7-Fluoro-4-(5-((tetrahydro-2H-pyran-4-yl)oxy)pyridin-3-yl)-2,3-dihydro-1H-inden-1-yl)oxy)phenyl)hex-4-ynoic acid]	++ (++: 40-70)
CC#C[C@@H](CC(=O)O)c1ccc(O[C@@H]2CCc3c(-c4cnc(OC5CCOCC5)c(Cl)c4)ccc(F)c32)cc1 [Example 17, (S)-3-(4-(((R)-4-(5-Chloro-6-((tetrahydro-2H-pyran-4-yl)oxy)pyridin-3-yl)-7-fluoro-2,3-dihydro-1H-inden-1-yl)oxy)phenyl)hex-4-ynoic acid]	+++ (+++: over 70)
CC#C[C@@H](CC(=O)O)c1ccc(O[C@@H]2CCc3c(-c4cnc(O[C@@H]5CCOC5)c(C#N)c4)ccc(F)c32)cc1 [Example 18, (S)-3-(4-(((R)-4-(5-Cyano-6-(((R)-tetrahydrofuran-3-yl)oxy)pyridin-3-yl)-7-fluoro-2,3-dihydro-1H-inden-1-yl)oxy)phenyl)hex-4-ynoic acid]	+++ (+++: over 70)
CC#C[C@@H](CC(=O)O)c1ccc(O[C@@H]2CCc3c(-c4cnc(OC5CCOCC5)c(C#N)c4)ccc(F)c32)cc1 [Example 19, (S)-3-(4-(((R)-4-(5-Cyano-6-((tetrahydro-2H-pyran-4-yl)oxy)pyridin-3-yl)-7-fluoro-2,3-dihydro-1H-inden-1-yl)oxy)phenyl)hex-4-ynoic acid]	+++ (+++: over 70)
CC#C[C@@H](CC(=O)O)c1ccc(O[C@@H]2CCc3c2ccc(C#N)c3-c2ccc(O[C@@H]3CCOC3)nc2)cc1 [Example 20, (S)-3-(4-(((R)-5-Cyano-4-(6-(((R)-tetrahydrofuran-3-yl)oxy)pyridin-3-yl)-2,3-dihydro-1H-inden-1-yl)oxy)phenyl)hex-4-ynoic acid]	+++ (+++: over 70)
CC#C[C@@H](CC(=O)O)c1ccc(O[C@@H]2CCc3c2ccc(F)c3-c2ccc(O[C@@H]3CCOC3)nc2)cc1 [Example 21, (S)-3-(4-(((R)-5-Fluoro-4-(6-(((R)-tetrahydrofuran-3-yl)oxy)pyridin-3-yl)-2,3-dihydro-1H-inden-1-yl)oxy)phenyl)hex-4-ynoic acid]	+++ (+++: over 70)
CC#C[C@@H](CC(=O)O)c1ccc(O[C@@H]2CCc3c2ccc(F)c3-c2ccc(OC3CCOCC3)nc2)cc1 [Example 24, (S)-3-(4-(((R)-5-Fluoro-4-(6-((tetrahydro-2H-pyran-4-yl)oxy)pyridin-3-yl)-2,3-dihydro-1H-inden-1-yl)oxy)phenyl)hex-4-ynoic acid]	+++ (+++: over 70)

Source: patent US11731961B2, “Phenyl propionic acid derivatives and uses thereof” (ILDONG PHARMACEUTICAL CO., LTD., priority 2016, dated 2023)
